# Laboratory results: patent US11634452B2, “Compounds for treating neurodegenerative disorders” (ETHNODYNE, priority 2017, dated 2023)
# Values joined by “and” are separate entries in the source; they are usually repeats but may differ in a detail not shown here. Equal values may be shown once.
# Experiments:
# Type in all cases: cell-based
# [1] = tested on: primary rat dopaminergic neurons (TH positive neurons) injured with MPP+; assay: Neuroprotective effect following exposure to MPP+; conditions: MPP+ 4 μM, 48 h, no compound
# Experimental: This study investigated the neuroprotective effect of the Compound CR777 of example 1 on rat primary mesencephalic cultures following exposure to 1-methyl-4-phenyl pyridinium (MPP^+).
# Rat dopaminergic neurons were cultured as described by Visanji et al., 2008 FASEB J. 2008; 22(7):2488-97. Briefly, the midbrains obtained from 15-day old rat embryos (Janvier Labs, France) were dissected under a microscope. The embryonic midbrains were removed and placed in ice-cold medium of Leibovitz (L15, Batch 4290114, Pan Biotech, Germany) containing 2% of Penicillin-Streptomycin (PS, Batch 1451013, Pan Biotech) and 1% of bovine serum albumin (BSA, Batch K030913, Pan Biotech). The ventral portion of the mesencephalic flexure, a region of the developing brain rich in dopaminergic neurons, was used for the cell preparations.
# The midbrains were dissociated by trypsinisation for 20 min at 37° C. […] The cells were seeded in supplemented neurobasal medium at a density of 40 000 cells/well in 96 well-plates pre-coated with poly-L-lysine (Batch 3102256, Corning Biocoat) and maintained in a humidified incubator at 37° C. in 5% CO2/95% air atmosphere. Half of the medium was changed every 2 days with fresh medium.
# On day 6 of culture, the medium was removed and fresh medium was added, without or with MPP+ at 4 μM diluted in control medium and let for 48 h. […]
# The following conditions were assessed: (6 wells per condition) • Control (vehicle) • Compound CR777 of example 1 (1 pmol/L) • Compound CR777 of example 1 (10 pmol/L) • Compound CR777 of example 1 (100 pmol/L) • Compound CR777 of example 1 (1 nmol/L) • Compound CR777 of example 1 (10 nmol/L) • Compound CR777 of example 1 (100 nmol/L) • Compound CR777 of example 1 (1 μmol/L) • Compound CR777 of example 1 (10 μmol/L) […]
# Data were expressed in percentage of control conditions (no injury, no compound=100%). All values were expressed as mean+/−SEM (standard error mean) of the 6 wells with statistical analyses on the different conditions (ANOVA followed by Dunnett's test when allowed, using GraphPad Prism software).
# [2] = tested on: primary rat cortical neurons injured with Aβ1-42; assay: Neuroprotective effect on an in vitro model of Alzheimer disease; conditions: Aβ1-42 20 μM, 24 h, no compound
# Experimental: These peptides contribute to cerebrovascular lesions and are neurotoxic. This study investigated the neuroprotective effect of the plant extract of the invention on rat primary cortical cultures following exposure to Aβ1-42 in an in vitro AD model (Callizot. N., et al., 2013).
# Rat cortical neurons were cultured as described in Example 6.
# The cortical neurons were intoxicated with amyloid beta peptides solutions after 11 days of culture in presence of tested compound CR777.
# Briefly, Aβ1-42 peptide (Batch: APN09080-1-1, Abcam, United Kingdom) was dissolved in the defined culture medium B27 mentioned above, devoid of serum, at an initial concentration of 40 μmol/L. This solution was gently agitated for 3 days at 37° C. in the dark and immediately used after being properly diluted in culture medium to the concentrations used (20 μM corresponding to 2 μM of AβO, measuring by WB, for survival, neurite network, tau phosphor and caspase 3 activation and 2.5 μM corresponding to 0.25 μM of AβO, for synapses evaluation).
# CR777 was solved in DMSO at 10 mM and diluted in culture medium at different concentrations (see table below). The compound was tested on one primary cortical culture in 96 well plates (6 wells per conditions), and was pre-incubated 1 hour before Aβ1-42 application for 24 hours.
# 24 hours after intoxication, the cell culture supernatant was taken off and the cortical neurons were fixed by a cold solution of ethanol (95%) and acetic acid (5%) for 5 min at −20° C. • Plate 1: Immunostainning (MAP-2/Tau Phosphor)
# After permeabilization with 0.1% of saponin, cells were incubated for 2 hours with a) a mouse monoclonal antibody anti phosphoT at dilution of 1/400 in PBS containing 1% fetal calf serum and 0.1% of saponin and b) a chicken polyclonal antibody anti microtubule-associated-protein 2 (MAP-2) at dilution of 1/1000 in PBS containing 1% fetal calf serum and 0.1% of saponin (this antibody stains specifically cell bodies and neurites, allowing study of neuronal cell survival and neurite network).
# (§1) For each condition, 30 pictures/well (representative of ˜the all well area) were taken automatically using ImageXpress (Molecular Devices) with 20× magnification. All images were taken with the same conditions. Analysis were performed automatically by using Custom Module Editor (Molecular Devices).
# The following endpoints were investigated per culture well: • The total neuron survival (MAP-2 staining), • The neurite network (MAP-2 staining) and • hyperphophorylation of T protein (pT) into neurons (pT/MAP-2). • Plate 2: Immunostainning (MAP-2/Caspase 3)
# as §1, with “Devices). • The total number of caspase 3 positive neuron (overlapping caspase3/MAP-2) were investigated per culture well:” for “Devices).”
# Data is expressed in percentage of control conditions (no injury, no compound=100%). All values are expressed as mean+/−SEM (standard error of the mean) from 6 wells per condition per culture. Neuro-Sys performed graphs and statistical analyses on the different conditions (ANOVA followed by Dunnett's test when allowed, using GraphPad Prism software version 5.0).
# [3] = tested on: primary rat motor neurons injured with glutamate; assay: Primary motor neuron culture survival after glutamate exposure (in vitro ALS model); conditions: glutamate 5 μM for 20 min, no compound
# Experimental: The aim of this study was to study the effect of CR777 on primary motor neuron culture from rat spinal cord (SC) injured by glutamate exposure (a well validated in vitro ALS model and model of motor neuron diseases).
# Rat SC motor neurons were cultured as described by Martinou et al., Neuron. 1992 April; 8(4):737-44 and Wang et al., Hum Mol Genet. 2013 Dec. 1; 22(23):4706-19. Briefly, pregnant female rats (Wistar, Janvier labs) of 14 days gestation were killed by cervical dislocation. […] Cells were then centrifuged at 180 g for 10 min at +4° C. on a layer of BSA (3.5%) in L15 medium. […] The medium was changed every day.
# The following conditions were assessed: • Control • + glutamate (5 μM 20 mn then 48 h) • + glutamate (5 μM 20 mn then 48 h)+CR777 1 pmol/L • + glutamate (5 μM 20 mn then 48 h)+CR777 10 pmol/L • + glutamate (5 μM 20 mn then 48 h)+CR777 100 pmol/L • + glutamate (5 μM 20 mn then 48 h)+CR777 1 nmol/L • + glutamate (5 μM 20 mn then 48 h)+CR777 10 nmol/L • + glutamate (5 μM 20 mn then 48 h)+CR777 100 nmol/L • + glutamate (5 μM 20 mn then 48 h)+CR777 1 μmol/L • + glutamate (5 μM 20 mn then 48 h)+CR777 10 μmol/L […]
# For each condition, 6 wells were assessed, 30 pictures per well were taken using ImageXpress (Molecular Devices) with 20× magnification, to assess motor neuron survival (MAP-2). […]
# [4] = tested on: primary rat cortical neurons injured with glutamate; assay: Effect in rat primary cortical neurons after glutamate injury; conditions: glutamate 40 μM, 20 min, no compound
# Experimental: A., et al., 1999. J Neurosci 19: 2455-2463 and Callizot.
# The medium was changed every 2 days. The cortical neurons were intoxicated with glutamate solution.
# The following conditions were assessed: • Control (culture medium) • + glutamate (40 μM, 20 min) • + glutamate (40 μM, 20 min)+CR777 (at each concentration)
# [5] = tested on: primary rat dopaminergic neurons (TH positive neurons) injured with 6-OHDA; assay: Neuroprotective effect following exposure to 6-OHDA, with or without pathway inhibitors; conditions: 6-OHDA 20 μM, 48 h, no compound
# Experimental: This study investigated the mode of action of CR777 on rat primary mesencephalic cultures following exposure to 6-OHDA. The effect of CR777 on level of GDNF and BDNF mRNA was investigated after 24 h 6-OHDA incubation and CR777. The main pathways of survival, regulation of the apoptosis and neuronal growth were investigated in presence of CR777 and inhibitors of these different pathways. The following pathways were investigated using antagonists of different proteins of interest: • RAS (small GTPase)/RAF (proto-oncogene Serine/threonine kinase); • Peroxisome proliferator-activated receptor gamma (PPAR-γ) (nuclear receptor) • The Pi3K/AKT/mTor (cell signaling pathway that plays a key role in cellular homeostasis through its role in regulation of apoptosis, cell growth, cell cycle). • NO (nitric oxide) pathway
# Rat dopaminergic neurons were cultured as described in Example 4.
# On day 6 of culture, the medium was removed and fresh medium was added, without or with 6-OHDA (Sigma, Batch: 083M4624V) at 20 μM diluted in control medium and let for 48 h. In parallel, all inhibitors were solved in culture medium and were added 2 h before the 6-OHDA application (namely 1 h before test compounds application).
# CR777 was solved in DMSO at 10 mM, diluted in culture medium and then pre-incubated with mesencephalic neurons 1 hour before the 6-OHDA application (48 h). 6 wells per condition were assessed.
# For survival and α-syn aggregation, compound was tested on 1 culture in a 96 well-plate (6 wells per condition), was pre-incubated 1 hour before 6-OHDA and let for 48 hours.
# The following conditions were assessed: • Control (culture medium) • +6-OHDA (20 μM, 48 h) • +6-OHDA (20 μM, 48 h)+CR777 1 μM • +6-OHDA (20 μM, 48 h)+CR777 100 nM • +6-OHDA (20 μM, 48 h)+CR777 10 nM • +6-OHDA (20 μM, 48 h)+CR777 1 nM
# For pathway investigation, the compound was tested on one primary dopaminergic culture in 96 well plates (6 wells per conditions).
# Inhibitors were pre-incubated for 2 hours before 6-OHDA application and CR777 was pre-incubated 1 hour before 6-OHDA application.
# The antagonists/inhibitors used in the experiments are the following: • FTS: farnesylthiosalicylic acid selectively disrupts the association of chronically active Ras proteins with the plasma membrane. • BEZ-235: dual PI3K/mTOR inhibitor. • T0070907: selective PPAR-γ antagonist • L-NAME (Nitro-L-arginine methyl ester): precursor to NOS inhibitor, L-NNA—requires bioactivation to become a fully functional inhibitor. • ABT-199: selective inhibitor of Bcl-2.
# 48 hours after intoxication, the cell culture supernatant was taken off and the dopaminergic neurons were fixed by a solution of 4% paraformaldehyde in PBS, pH=7.3 for 20 min at room temperature.
# After permeabilization with 0.1% of saponin, cells were incubated for 2 hours with:
# monoclonal Anti-Tyrosine Hydroxylase (TH) antibody produced in mouse at dilution of 1/10000 in PBS containing 1% FCS, 0.1% saponin,
# polyclonal anti-α-syn antibody produced in rabbit at dilution of 1/200 for 2 h at room temperature.
# For each condition, 20 pictures/well (representative of ˜the all well area) were automatically taken using ImageXpress (Molecular Devices) with 10× magnification. All images were taken with the same conditions. Analysis were automatically performed by using Custom Module Editor (Molecular Devices).
# The following endpoint was investigated for each culture well: • The total dopaminergic neuron survival (TH staining), • The total area of α-syn on TH positive neuron (overlapping α-syn/TH)
# After permeabilization with 0.1% of saponin, cells were incubated for 2 hours with monoclonal Anti-Tyrosine Hydroxylase (TH) antibody produced in mouse at dilution of 1/10000 in PBS containing 1% FCS, 0.1% saponin, for 2 h at room temperature.
# The total dopaminergic neuron survival (TH staining) was investigated for each culture well.
compound,measurement,setting,value
"C[n+]1ccc(-c2ccccc2)cc1 [MPP+, 1-methyl-4-phenyl pyridinium, reference compound]",TH positive neuron cell death induced by the toxin,[1],> 35%
"Amyloid beta peptide 1-42 [Aβ, reference compound]",caspase 3 activation induced by Aβ,[2],activation of caspase 3
same,hyperphosphorylation of tau induced by Aβ,[2],increase of the hyperphosphorylation of tau
same,neurite network loss induced by Aβ,[2],~40%
"N[C@@H](CCC(=O)O)C(=O)O [Glutamate, glutamate, reference compound]",motor neuron death induced by glutamate,[3],> 30%
same,neurite network loss induced by glutamate,[4],neurite network loss
same,neuronal death induced by glutamate,[4],significant neuronal death
"NCCc1cc(O)c(O)cc1O [Compound 6-OHDA, reference compound]",TH positive neuronal death induced by the toxin,[5],~30%
same,loss of the neurite network induced by the toxin,[5],~35% and ~40%
same,α-syn aggregation inside TH neuron cytoplasm induced by the toxin,[5],large and significant α-syn aggregation
